Measurements reported in US6827949B2, “Wood preservative” (Takeda Chemical Industries, Ltd., priority 2001, dated 2004).

Columns and labels:
Fomitopsis palustris = assay: Wood-decaying fungal growth inhibition test; assay type: cell-based; set-up: key: 0: No growth; 1: Fungal growth; conditions: filter paper immersed in 5 w/w % acetone solution, placed on Fomitopsis palustris on PDA medium; Control 1
From the text: A No.2 filter paper of 1×1 cm in size was immersed in the solution, taken out and then air-dried. The filter was then placed on a Fomitopsis palustris which had been cultivated on a PDA medium in a petri dish and observed conditions of fungal growth for 8 weeks.

[1] = system: spore mixture of Aspergillus niger, Penicillin funculosum, Aureobasidium pullulans and Gliocladium virens; assay: Woodstaining fungal growth inhibition test; assay type: cell-based; set-up: key: 0: No fungal growth; 1: Fungal growth; conditions: filter paper immersed in 5 w/w % acetone solution, sprayed with spore mixture, 2% agar; Control 1
From the text: In the solution, a No.2 filter paper of 1×1 cm in size was immersed, taken out and then air-dried.
Aureobasidium pullulans and […]

[2] = system: worker ants of Coptotermes formosanus; assay: Damage (ingestion) inhibition test (filter paper); assay type: in vivo; set-up: key: 0: No damage; 1: Damage of ½ or less; 2: Damage of ½ to ¾; 3: Damage of ¾ with some remainder; 4: Complete damage; conditions: filter paper immersed in 1 w/w % solution in acetone (hispidin in methanol); 100 worker ants; Control 4
Description: A 1 w/w % solution of each compound shown in Table 7 in acetone (except for hispidin which was prepared as a 1 w/w % solution in methanol) was prepared.
In this solution, a No.2 filter paper of 1×1 cm in size was immersed, taken out and then air-dried. It was then placed in a 11-K bottle in which 100 worker ants of Coptotermes formosanus had been kept, and the ingestion behavior was observed. Hispidin employed was a reagent produced by Calbiochem.

| Structure (SMILES) | Fungal growth after 8 weeks (Fomitopsis palustris) | Fungal growth after 3 days [1] | Damage degree after 1 week [2] |
| --- | --- | --- | --- |
| COC1=CC(=O)OC(CCc2ccc(OC)cc2)C1 (stereo not shown) [5,6,7,8-Tetrahydroyangonin] | 0 | 0 | 0 |
| COc1cc(/C=C/c2ccccc2)oc(=O)c1 [5,6-Dehydrokawain] | 0 | 0 | 1 |
| COC1=CC(=O)O[C@@H](CCc2ccccc2)C1 [7,8-Dihydrokawain] | 0 | 0 | 0 |
| COC1=CC(=O)O[C@@H](CCc2ccc3c(c2)OCO3)C1 [7,8-Dihydromethysticin] | 0 | 0 | 0 |
| O=c1cc(O)cc(/C=C/c2ccc(O)c(O)c2)o1 [Hispidin, reference compound] |  |  | 1 |
| COC1=CC(=O)O[C@@H](/C=C/c2ccccc2)C1 [Kawain] | 0 | 0 | 1 |
| COC1=CC(=O)O[C@@H](/C=C/c2ccc3c(c2)OCO3)C1 [Methysticin] | 0 | 0 | 0 |
| COc1ccc(/C=C/c2cc(OC)cc(=O)o2)cc1 [Yangonin] | 0 | 0 | 1 |
